CC(=O)[C@H]1CC[C@H]2[C@@H]3CCC4=CC(=O)CC[C@]4(C)[C@H]3CC[C@]12C
solubility (mole fraction)
Settings	278.15 K	283.15 K	288.15 K	293.15 K	298.15 K	303.15 K	308.15 K	313.15 K	318.15 K	323.15 K
in 1,4-dioxane	–	–	0.0614	0.073	0.0855	0.1	0.117	0.136	0.156	0.179
in THF	0.0598	0.0701	0.0816	0.0943	0.109	0.125	0.143	0.163	0.185	0.209
in acetone	0.0143	0.0187	0.0244	0.0311	0.0397	0.0494	0.0617	0.076	0.094	0.116
in acetonitrile	0.00716	0.0101	0.0131	0.0178	0.0235	0.0305	0.0396	0.0508	0.0646	0.0816
in ethanol	0.00337	0.00455	0.00623	0.00859	0.0112	0.0146	0.0192	0.0251	0.0319	0.0411
in ethyl acetate	0.0142	0.0175	0.0215	0.0266	0.0321	0.039	0.0471	0.0566	0.0671	0.0802
in isopropanol	0.00314	0.00446	0.00615	0.00841	0.0115	0.0153	0.0203	0.0269	0.0349	0.0455
in methanol	0.00232	0.00335	0.00472	0.00676	0.0092	0.0127	0.0173	0.0234	0.0308	0.0412
in n-butanol	0.00706	0.00947	0.0127	0.0164	0.0211	0.0268	0.0346	0.0439	0.0551	0.0682
in n-heptane	0.000112	0.00018	0.000281	0.000425	0.000617	0.000914	0.00135	0.00198	0.00284	0.00402
in n-propanol	0.00527	0.0071	0.00969	0.0131	0.0171	0.0227	0.0294	0.0378	0.0485	0.0614
in toluene	0.0797	0.0907	0.102	0.115	0.13	0.146	0.162	0.182	0.203	0.225

Reference: BigSolDB 2.1
